Legend:
[1] = system: D-amino acid oxidase (DAAO); details: cited from earlier work
patients with dementia = details: depression in patients with dementia; cited from earlier work
patients with MDD [2] = assay: Perceived stress scale (PSS) in randomized, double-blind, placebo-controlled trial; type: in vivo, human; details: for PSS Difference, Mean ± SD: baseline to week 8, 250-1500 mg/day, n = 20, p=0.022 vs placebo
Protocol: (§1) It was conducted a randomized, double-blind, placebo-controlled trial in Taiwan. […] At the baseline and at the end of week 2, 4, 6 and 8, the assessments of 17-Item Hamilton rating scale for depression (HAMD-17) (Hamilton 1960), perceived stress scale (PSS), and global assessment of function (GAF) were arranged.
(§2) This study was a pilot eight weeks trial with the aim of examining sodium benzoate for the treatment of MDD. Patients were evaluated by research psychiatrists after a thorough medical and neurological workup. The structured clinical interview for DSM-IV (SCID) (American Psychiatric Association 1994) was conducted for diagnosis, and eligible patients diagnosed with MDD by DSM-IV (American Psychiatric Association 1994b) were recruited. […] The dosage of study drugs was adjusted according to clinical evaluation.
(§3) The data analyses were based on the intent-to-treat principle. The last observation carried forward was used to analyze all available data from the entire sample (i.e., cases with complete and incomplete data). A level of 0.05 (two-sided value) for type I errors was adopted for all analyses for statistical significance. Demographic characteristics, baseline and endpoint symptomatology were compared between two groups by t test (or Mann-Whitney U test) for continuous variables and chi-square test (or Fisher's exact test) for categorical variables.

patients with MDD [3] = assay: Global assessment of function (GAF) in randomized, double-blind, placebo-controlled trial; type: in vivo, human; details: for GAF Difference, Mean ± SD: baseline to week 8, 250-1500 mg/day, n = 20, table p 0.103 vs placebo
Protocol: as §1
Patients were evaluated by research psychiatrists after a thorough medical and neurological workup. The structured clinical interview for DSM-IV (SCID) (American Psychiatric Association 1994) was conducted for diagnosis, and eligible patients diagnosed with MDD by DSM-IV (American Psychiatric Association 1994b) were recruited. […] The dosage of study drugs was adjusted according to clinical evaluation.
as §3

patients with MDD [4] = assay: Safety assessment: UKU side-effects rating scale, routine laboratory tests, EKG, dropout; type: in vivo, human
Protocol: In addition, the assessments of systemic side effects were examined biweekly by routine physical and neurological examinations and the Udvalg for Kliniske Undersogelser (UKU) side-effects rating scale (Lingjaerde, Ahlfors et al. 1987). The routine laboratory tests, including complete blood count (CBC), biochemistry, urine analysis and electrocardiogram (EKG), were checked at the baseline and at the end of week 8.
Further, clinical assessment of safety was performed every week during the study period by face-to-face or telephone interview. Drop out was determined by research psychiatrists or patients if continuation of the study was regarded obviously more risky than beneficial.

patients with MDD [5] = assay: Mini-mental state examination (MMSE) score of single subjects of the treatment group; type: in vivo, human; details: for MMSE score before treatment: baseline
Description: At the same time, the mini-mental state examination (MMSE) score, which is used to evaluate cognitive impairment, has improved from 26 to 30. […] Furthermore, person two has a decrease of HAMD-17 score from 26 to 12, and improved cognitive function as shown by an increased MMSE score from 23 to 26.

patients with MDD [6] = assay: 17-Item Hamilton rating scale for depression (HAMD-17) in randomized, double-blind, placebo-controlled trial; type: in vivo, human; details: for HAMD-17 Difference, Mean ± SD: baseline to week 8, 250-1500 mg/day, n = 20, p=0.011 vs placebo; for HAMD-17 score before treatment: baseline
Protocol: as §1, §2, §3

[7] = week 0, n = 20, before treatment
[8] = single subject one, after 8 weeks
[9] = single subject three, after treatment
[10] = single subject two, after treatment

O=C(O)c1ccccc1 [Benzoic acid]
inhibition of DAAO activity [1]: can inhibit DAAO activity

CN1CCN2c3ncccc3Cc3ccccc3C2C1 (stereo not drawn) [mirtazapine]
reduction of depression scores compared with placebo (patients with dementia): did not differ from the placebo group

CN[C@H]1CC[C@@H](c2ccc(Cl)c(Cl)c2)c2ccccc21 [sertraline]
reduction of depression scores compared with placebo (patients with dementia): did not differ from the placebo group

O=C([O-])c1ccccc1.[Na+] [sodium benzoate]
improvement in PSS scores compared with placebo therapy (patients with MDD [2]; 8 weeks): greater improvement | PSS Endpoint, Mean ± SD (patients with MDD [2]; after 8 weeks, 250-1500 mg/day, n = 20, LOCF, p 0.019 vs placebo): 28.9 ± 10.8 | PSS Difference, Mean ± SD (patients with MDD [2]): 6.4±9.9 | PSS Difference, Mean ± SD (patients with MDD [2]; listed as Benzoate): −6.4 ± 9.9 | PSS Baseline, Mean ± SD (patients with MDD [2]; [7]): 35.2 ± 5.8 | improvement in GAF scores compared with placebo therapy (patients with MDD [3]; 8 weeks): slightly greater improvement | GAF Difference, Mean ± SD (patients with MDD [3]): 5.5±6.0 | GAF Difference, Mean ± SD (patients with MDD [3]; listed as Benzoate): 5.5 ± 6.0 | GAF Baseline, Mean ± SD (patients with MDD [3]; [7]): 57.4 ± 8.4 | Treatment-emergent adverse events by UKU side-effects rating scale (patients with MDD [4]; 8-week treatment): mild and not warranting medical treatment | dropout due to side effects (patients with MDD [4]; 8-week treatment): No dropout was due to side effects | values of routine CBC, biochemistry and EKG tests after treatment (patients with MDD [4]; baseline and end of week 8): all within the normal ranges without a significant change | commonly seen side effects of anti-depression medication (nausea, nervousness, restlessness, irregular heart rate, sweating, constipation) (patients with MDD [4]; subjects from the treatment group): not observed | MMSE score after treatment (patients with MDD [5]; [8]): 30 | MMSE score before treatment (patients with MDD [5]; single subject one): 26 | MMSE score after treatment (patients with MDD [5]; [9]): 25 | MMSE score before treatment (patients with MDD [5]; single subject three): 23 | MMSE score after treatment (patients with MDD [5]; [10]): 26 | MMSE score before treatment (patients with MDD [5]; single subject two): 23 | improvement in HAMD-17 scores compared with placebo therapy (patients with MDD [6]; 8 weeks): greater improvement | HAMD-17 Endpoint, Mean ± SD (patients with MDD [6]; after 8 weeks, 250-1500 mg/day, n = 20, LOCF): 19.3 ± 6.4 | HAMD-17 Difference, Mean ± SD (patients with MDD [6]): 7.5±4.9 | HAMD-17 Difference, Mean ± SD (patients with MDD [6]; listed as Benzoate): −7.5 ± 4.9 | HAMD-17 score decrease (patients with MDD [6]; single subject one, 8 weeks): 20 | HAMD-17 score after treatment (patients with MDD [6]; [8]): 4 | HAMD-17 score before treatment (patients with MDD [6]; single subject one): 24 | HAMD-17 score decrease (patients with MDD [6]; single subject three): 16 | HAMD-17 score after treatment (patients with MDD [6]; [9]): 15 | HAMD-17 score before treatment (patients with MDD [6]; single subject three): 31 | HAMD-17 score after treatment (patients with MDD [6]; [10]): 12 | HAMD-17 score before treatment (patients with MDD [6]; single subject two): 26 | HAMD-17 Baseline, Mean ± SD (patients with MDD [6]; [7]): 26.7 ± 5.2 | inhibition of DAAO activity [1]: can inhibit DAAO activity

Source: patent publication US11826326B2, “Benzoic acid or a salt and derivative thereof for use in preventing or treating depression” (EXCELSIOR PHARMATECH LABS, priority 2017, dated 2023)
